Assay results published in patent publication US8367659B2, “Oxazinyl isoflavonoid compounds, medicaments and use” (Marshall Edwards, Inc., priority 2007, dated 2013).
“Also recorded” adds a separate entry of the source. Where two headings read alike, the source gives them in different places.

How the values were obtained:
red blood cells (RBC) = experiment: Peroxyl radical (AAPH)-induced red blood cell lysis; format: cell-based; conditions: for Time taken to reach half-lysis, time: test compounds at 10 μM, vehicle 40.0
Protocol: Freshly collected heparinised venous blood (10 ml, on ice) was aliquotted into 1.8 ml sterile Eppendorf tubes and centrifuged for 10 minutes at 2600 rpm at 4° C. Plasma and buffy coat layers were removed (approximately […]) and packed red blood cells (RBC) were then washed by the addition of […], ice cold PBS. This washing procedure was repeated twice. Packed RBC were resuspended by the addition of 900 ml of ice-cold, sterile PBS (and termed RBC stock). RBC stocks were stored at 4° C. for a maximum of three days. All working suspensions of RBC were prepared fresh daily by diluting […] of RBC stock into 10 ml of ice-cold, sterile PBS and […] added to each well.
Stocks of AAPH were freshly prepared for individual experiments as follows. AAPH (1.22 gm) was dissolved in 7.5 ml of PBS to yield a 4× stock at 600 mM and […] aliquots (final concentration of 150 mM) were then added to each well to initiate the lysis assay. Stock solutions of test compounds (40 mM in 100% DMSO) were diluted in sterile PBS to yield final concentrations of […] per well. Appropriate controls were included in each experiment. All compound dilutions were adjusted to give final DMSO concentrations in each well of 0.25%. Peroxy-induced RBC lysis assays were performed in 96-flat bottom well microtitre plates with a total volume of […] per well. Turbidity of RBC suspensions were monitored using a Tecan microplate reader at 690 nm (37° C.) with gentle vortexing. Assays were performed in quadruplicate and readings were taken every 5 minutes over 5 hours. RBC lysis curves were constructed by plotting absorbance (mean of 4 readings) against time. Time to half-lysis was calculated by taking the highest absorbance reading (no lysis) and the lowest absorbance reading (maximum lysis). The sum of these two readings divided by two gave the absorbance at half-lysis. Simple regression analysis was used to calculate the time at which half-lysis absorbance occurred.
This comparative study was conducted according to the assay method set out in the example at Section 3.3 above.

MDA-MB-468 = experiment: Anti-cancer activity, MDA-MB-468 breast cancer cells (MTT); format: cell-based; conditions: Homo sapiens, MDA-MB-468, 120 h, 5 days
[1] = tested on: NFκB-promoter activity in TNFa-stimulated THP-1 monocyte/macrophages; experiment: NFκB promoter activity in TNFα-stimulated THP-1 cells (beta-lactamase reporter); format: cell-based, human; conditions: for inhibition at 30 µM: Homo sapiens, THP-1, read-out: % inhibition compared to control; for inhibition at 30 µM / Inflammatory index: test compound 30 μM; for Inflammatory index: control 11.56 ± 0.49
Protocol: The assay utilizes a genetically modified THP-1 cell line and GeneBLAzer® beta-lactamase technology (Invitrogen Corp). The human THP-1 monocyte/macrophages contain a stably-transfected beta-lactamase reporter gene under control of the NFκB response element They respond to stimulation with TNF-a, which leads to activation of the NFκB signaling pathway. Co-incubation of cells with TNF-a and test material allows quantitative determination of the ability of test material to inhibit TNFa-stimulated beta-lactamase production. Inflammatory index is calculated as the ratio of beta-lactamase product to beta-lactamase substrate. In brief, genetically modified THP-1 cells were seeded into wells of a 96-well plate (50×10^3 cells/well) in the presence of RPMI 1640 medium (70 μl). TNFα was added to each well (10 μl) to give a final concentration of 7.5 ng/ml. Dialyzed bovine serum was added (10 μl). Compounds dissolved in DMSO (10 μL) were then added (5 wells for each compound). Each plate contained a no-cell control (4 wells), a no-serum control (4 wells) and two serum controls. Plates were incubated for 5 h at 37° C. to allow for NFκB-stimulated beta-lactamase production. LiveBLAzer™ FRET B/G Substrate (CCF4-AM) substrate was then added to assay. CCF4-AM is a Forster resonance energy transfer (FRET) based substrate for beta-lactamase developed by Invitrogen Corp. Once CCFA-AM enters a cell, it is converted to negatively charged CCF4 by endogenous esterases. Excitation of this substrate at 409 nm leads to efficient FRET between the coumarin and fluorescein moieties, resulting in a green fluorescence detectable at 530 nm. The presence of beta-lactamase leads to cleavage of CCF4 and results in a loss of FRET, resulting in a robust blue fluorescent signal detectable at 460 nm. Thus, activity of beta-lactamase (a marker of NFκB-promoter activity) is measured as a product to substrate ratio (blue/green fluorescence ratio: 460 nm/530 nm). The determination of inflammatory index has a within-plate CV of 2.1% and a between-plate CV of 8.9% This comparative study was conducted according to the assay method set out in the example at Section 2.4 above.

[2] = Free radical scavenging with DPPH; conditions: for EC50: DPPH, read-out: Free radical scavenging ability EC50
Method in brief: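 Compounds reacted with DPPH in ethanol for 20 min, screened at 100 μM, and absorbance at 517 nm compared with a DPPH-ethanol blank. IC50 was taken as the concentration giving a 0.6 absorbance change, with 1.2 units representing total scavenging.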

IC50 (MDA-MB-468)	EC50 ([2]; 20 minutes, absorbance 517 nm, Table 4)	EC50 ([2]; comparative, Table 13)	SMILES	Time taken to reach half-lysis, time (red blood cells (RBC); Table 8)	Time taken to reach half-lysis, time (red blood cells (RBC); comparative, Table 14)	inhibition at 30 µM [1]	Inflammatory index [1]	antioxidant activity, AAPH-induced time to half-lysis of red blood cells (red blood cells (RBC))	free radical scavenging / antioxidant activity in DPPH screen ([2]; 100 μM, ΔAbs>0.3 criterion)	NFκB inhibition ([1]; 30 μM, FIG. 19)
5.25 ± 2.1 µM			Oc1ccc(C2=Cc3cc4c(cc3OC2)OCN(Cc2ccccc2)C4)cc1 [Compound 1, 4-(3-Benzyl-2,3,4,8-tetrahydrochromeno[6,7-e][1,3]oxazin-7-yl)phenol]	141.6 min	141.6 min	45.5%	6.31 ± 0.36			
4.87 ± 2.6 µM	21.4 µM		CC(c1ccccc1)N1COc2cc3c(cc2C1)C=C(c1ccc(O)cc1)CO3 (stereo not shown) [Compound 2, 4-(3-(1-Phenylethyl)-2,3,4,8-tetrahydrochromeno[6,7-e][1,3]oxazin-7-yl)phenol]	124.3 min		34.8%	7.54 ± 0.17	delaying the AAPH-induced time to half-lysis		
		55 µM	Oc1cccc(C2=Cc3ccc(O)cc3OC2)c1 [Compound 37-DHE, 3′,7-dihydroxy-isoflav-3-ene, reference compound]		126.6 min			delaying the AAPH-induced time to half-lysis	free radical scavenging activity; also recorded: potent free radical scavenging ability	inhibited NFκB
